Measured values published in ChEMBL document CHEMBL3813668, “Design, synthesis, and biological evaluation of anti-EV71 agents” (Bioorg Med Chem Lett, 2016).

Tests used:
[1] = Metabolic stability in mouse plasma assessed as compound remaining after 2 hrs; format: ADME, cell-free; details: read-out: Stability
Enterovirus A71 = assay: Antiviral activity against Enterovirus 71/Shenzhen/120F1/09 infected in human RD cells assessed as reduction in virus induced cell death after 72 hrs by CCK-8 assay; format: functional, organism-based; details: Enterovirus A, Shenzhen/120F1/09, RD
[2] = Bioavailability in mouse at 5 mg/kg, ip; format: ADME, organism-based; details: in vivo
[3] = Clearance in mouse at 2 mg/kg, iv; format: ADME, organism-based; details: in vivo
[4] = Half life in mouse at 2 mg/kg, iv; format: ADME, organism-based; details: in vivo
[5] = AUC in mouse at 5 mg/kg, ip; format: ADME, organism-based; details: in vivo
[6] = AUC in mouse at 2 mg/kg, iv; format: ADME, organism-based; details: in vivo
[7] = Volume of distribution in mouse at 2 mg/kg, iv; format: ADME, organism-based; details: in vivo
[8] = Half life in mouse at 5 mg/kg, ip; format: ADME, organism-based; details: in vivo
[9] = Cmax in mouse at 5 mg/kg, ip; format: ADME, organism-based; parameters: dose 5 mg/kg, route intraperitoneal; details: in vivo
rhinovirus B14 = assay: Antiviral activity against HRV-14 infected in H1HeLa cells after 2 days by XTT assay; format: functional, organism-based; details: Rhinovirus B, H1-HeLa, 48 h

| remaining at 2 h [1] | Structure (SMILES) | EC50 (Enterovirus A71) | also measured |
| --- | --- | --- | --- |
| 5.3% | Cc1cc(C(=O)N[C@H](C(=O)C[C@@H](Cc2ccc(F)cc2)C(=O)N[C@H](/C=C/C(=O)OC2CCC2)C[C@@H]2CCNC2=O)C(C)C)no1 | 260 nM | – |
| 88% | Cc1cc(C(=O)N[C@H](C(=O)C[C@@H](Cc2ccc(F)cc2)C(=O)N[C@H](/C=C2\CCOC2=O)C[C@@H]2CCNC2=O)C(C)C)no1 | 28 nM | bioavailability [2]: 115%; clearance [3]: 130 mL/min/kg; half-life [4]: 12 min; AUC [5]: 1.28 µM·h; AUC [6]: 0.444 µM·h; Vd [7]: 1.6 L/kg; half-life [8]: 10.8 min; Cmax [9]: 2570 nM |
| 88% | Cc1cc(C(=O)N[C@H](C(=O)C[C@@H](Cc2ccc(F)cc2)C(=O)N[C@H](/C=C/C(=O)N2CCOCC2)C[C@@H]2CCNC2=O)C(C)C)no1 | 8920 nM | – |
| 26% | Cc1cc(C(=O)N[C@H](C(=O)C[C@@H](Cc2ccc(F)cc2)C(=O)N[C@H](/C=C/C(=O)N2CCc3cc(Cl)ccc32)C[C@@H]2CCNC2=O)C(C)C)no1 | 180 nM | – |
| 81% | Cc1cc(C(=O)N[C@H](C(=O)C[C@@H](Cc2ccc(F)cc2)C(=O)N[C@H](/C=C2\CC(C)OC2=O)C[C@@H]2CCNC2=O)C(C)C)no1 (stereo not given in full) | 220 nM | – |
| 63% | Cc1cc(C(=O)N[C@H](C(=O)C[C@@H](Cc2ccc(F)cc2)C(=O)N[C@H](/C=C/C(=O)N2CCC(F)(F)CC2)C[C@@H]2CCNC2=O)C(C)C)no1 | 1240 nM | – |
| 82% | Cc1cc(C(=O)N[C@H](C(=O)C[C@@H](Cc2ccc(F)cc2)C(=O)N[C@H](/C=C/C(=O)N2CCCC2)C[C@@H]2CCNC2=O)C(C)C)no1 | 12000 nM | – |
| 2.7% | CCOC(=O)/C=C/[C@H](C[C@@H]1CCNC1=O)NC(=O)[C@@H](CC(=O)[C@@H](NC(=O)c1cc(C)on1)C(C)C)Cc1ccc(F)cc1 [RUPINTRIVIR] | 9 nM | – |
| 54% | Cc1cc(C(=O)N[C@H](C(=O)C[C@@H](Cc2ccc(F)cc2)C(=O)N[C@H](/C=C/C(=O)N2CCC(F)(F)C2)C[C@@H]2CCNC2=O)C(C)C)no1 | 760 nM | – |
| 24% | Cc1cc(C(=O)N[C@H](C(=O)C[C@@H](Cc2ccc(F)cc2)C(=O)N[C@H](/C=C/S(=O)(=O)c2nccs2)C[C@@H]2CCNC2=O)C(C)C)no1 | 520 nM | – |

The next lines start with the compound.

| Structure (SMILES) | remaining at 2 h [1] | EC50 (Enterovirus A71) | also measured |
| --- | --- | --- | --- |
| CCOC(=O)/C=C/[C@H](C[C@@H]1CCNC1=O)NC(=O)[C@H](Cc1ccc(F)cc1)n1cccc(NC(=O)c2cc(C)on2)c1=O | 1.4% | – | EC50 (rhinovirus B14): 2 nM |
| CCOC(=O)/C=C/[C@H](C[C@@H]1CCNC1=O)NC(=O)[C@H](Cc1ccccc1)n1ccc2cc[nH]c2c1=O | – | – | EC50 (rhinovirus B14): 1270 nM |
| O=C1OCC/C1=C\[C@H](C[C@@H]1CCNC1=O)NC(=O)[C@H](Cc1ccc(F)c(F)c1)n1ccc2cc(Br)[nH]c2c1=O | 77% | 2010 nM | – |
| CCOC(=O)/C=C/[C@H](C[C@@H]1CCNC1=O)NC(=O)[C@H](Cc1ccc(F)c(F)c1)n1ccc2ccn(CC3CC3)c2c1=O | – | > 100000 nM | – |
| O=C1OCC/C1=C\[C@H](C[C@@H]1CCNC1=O)NC(=O)[C@H](Cc1ccc(F)c(F)c1)n1ccc2cc(-c3ccccc3F)[nH]c2c1=O | 92% | 340 nM | clearance [3]: 140 mL/min/kg; half-life [4]: 75.6 min; AUC [6]: 0.25 µM·h; Vd [7]: 8.8 L/kg |
| Cc1cc(C(=O)N[C@H](C(=O)C[C@@H](Cc2ccc(F)cc2)C(=O)N[C@H](/C=C/C(=O)OCc2ccccc2)C[C@@H]2CCNC2=O)C(C)C)no1 | 2.4% | 140 nM | – |
| CCOC(=O)/C=C/[C@H](C[C@@H]1CCNC1=O)NC(=O)[C@H](Cc1ccc(F)c(F)c1)n1ccc2cc[nH]c2c1=O | 1% | 3560 nM | – |
| CCOC(=O)/C=C/[C@H](C[C@@H]1CCNC1=O)NC(=O)[C@H](Cc1ccc(F)c(F)c1)n1ccc2cc(-c3ccccc3F)[nH]c2c1=O | 0% | 1020 nM | – |
| CCOC(=O)/C=C/[C@H](C[C@@H]1CCNC1=O)NC(=O)[C@H](Cc1ccc(F)c(F)c1)n1ccc2ccn(C)c2c1=O | – | > 100000 nM | – |
| O=C1OCC/C1=C\[C@H](C[C@@H]1CCNC1=O)NC(=O)[C@H](Cc1ccc(F)c(F)c1)n1ccc2cc[nH]c2c1=O | 80% | 13100 nM | – |
| CCOC(=O)/C=C/[C@H](C[C@@H]1CCNC1=O)NC(=O)[C@H](Cc1ccc(F)c(F)c1)n1ccc2ccn(-c3ccccn3)c2c1=O | 0.9% | > 100000 nM | – |
| CCOC(=O)/C=C/[C@H](C[C@@H]1CCNC1=O)NC(=O)[C@H](Cc1ccc(F)c(F)c1)n1ccc2cc(Br)[nH]c2c1=O | 0.3% | 500 nM | – |
| Cc1cc(C(=O)N[C@H](C(=O)C[C@@H](Cc2ccc(F)cc2)C(=O)N[C@H](/C=C/S(C)(=O)=O)C[C@@H]2CCNC2=O)C(C)C)no1 | – | 1510 nM | – |
| CCOC(=O)/C=C/[C@H](C[C@@H]1CCNC1=O)NC(=O)[C@H](Cc1ccc(F)c(F)c1)n1ccc2ccn(Cc3ccccc3)c2c1=O | – | > 100000 nM | – |
